According to PMC6614837 (Nucleic Acids Research, 2019):
Where “and” joins values, the source holds several entries; their conditions need not be identical. Equal entries are not always repeated. Structures can show the parent of a compound that is named as a salt.

How the values were obtained:
[1] = target: T1, RNase P holoenzyme from Thermotoga maritima (Thermotoga maritima, UniProt Q9X1H4); test: Verification of deconvoluted hits by fluorescence- and gel-based assays with Mh substrate; format: biochemical; settings: 250 μM (fluorescence) and 500 μM (gel)
T1 construct: made in house
T1 sequence (Q9X1H4 1-117): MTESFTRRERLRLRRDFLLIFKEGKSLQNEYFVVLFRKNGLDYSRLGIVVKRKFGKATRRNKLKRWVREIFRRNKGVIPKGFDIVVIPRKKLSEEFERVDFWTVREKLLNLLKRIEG
Protocol: For gel-based activity assays, reactions were prepared as described in the previous section (fluorescence activity assay), incubated for 1–15 min at 37–50°C, then loaded onto a denaturing 7 M urea–20% acrylamide gel in the case of the Mh substrate or 19% acrylamide (40% acrylamide/bisacrylamide 38.5:1.5) for the bipartite pre-tRNA substrate. The activity conditions for the gel reported in Figure 3A, to monitor the cleavage of the holoenzyme and P RNA, were under 100 mM AmOAc and 10 mM MgCl2. The gels (13 × 16 × 0.15 cm) were electrophoresed at 20 V/cm for 2–3 h. UV shadowing or ethidium bromide staining was used to visualize RNA cleavage. Detection of minihelix fluorescence was achieved without staining using a UV lamp with excitation at ∼254 nm.
Screening was performed with the Spectrum Collection (MicroSource Discovery Systems, Inc), which comprises 2560 compounds, each dissolved in DMSO at 10 mM. For our initial screening, compounds from this collection were tested in cocktails; eight compounds were tested per well in 384-well format. The final concentration of each compound in the cocktail was 1.25 mM. For the activity assay, reactions were set up in a total volume of 20 μl (13.5 μl of activity buffer, 1.5 μl of fluorescent Mh at 3.6 μM, 3 μl of DMSO or cocktail). […] The control wells included for each experiment series were: (i) reaction with twice (3 μl) the fluorescent Mh amount to avoid a signal saturation for the rest of the wells, (ii) two reactions with 10% DMSO (no cocktail), (iii) Mh substrate only, with no ribozyme, (iv) reaction with 100 mM CaCl2, which it is used as a negative control as it competes with MgCl2 (EDTA was not used because metal ions are essential to maintaining the structure of P RNA ([41])). The reaction was initiated by adding 2 μl of holoenzyme at 333 nM and monitored as described above. Each round of experiments contained twenty different cocktails corresponding to one row of a 384-well plate (Supplementary Figures S6 and S24). […] At this stage, each compound from the inhibitory cocktails was tested at a final concentration of 1 mM (2 μl of the 10 mM stock). We performed a gel-based assay for the nine selected compounds to qualitatively verify the results obtained by the fluorescence assay (Supplementary Figure S9). After deconvolution, each of the final four potential positive compounds was purchased individually from a different provider (Sigma-Aldrich) and tested inhibition using the T. maritima Mh, pre-tRNA and bipartite pre-tRNA substrates (Figure 2 and Supplementary Figures S10–S12 and S14).
Supplementary Figure 9. Consistent results between fluorescence- and gel-based assays. (A) Plots of fluorescent kinetic assays performed in standard conditions in the presence of the different hits at a concentration of 250 µM (four-fold lower concentration as compared to Supplementary Figure 8). (B) End-point assays of the RNase P holoenzyme from Thermotoga maritima in the presence of the non-fluorescent minihelix substrate and the different inhibitor hits at 500 µM, as assessed by 20% urea-PAGE.
The holoenzyme at 0.5 µM was preincubated at 37° C for 30 minutes in the presence of the individual compounds, centrifuged for 15 minutes at 12000g and incubated with the Mh substrate at 18 µM at 37 °C for 15 minutes. At this stage, iodoquinol was the only compound whose behavior was not corroborated in both assays (panels A and B). […]
experiments reported in this Figure. […] Alexidine […]

[2] = target: T1, RNase P holoenzyme from Thermotoga maritima; test: Real-time fluorescence-based (FRET) RNase P activity assay with minihelix (Mh) substrate; format: biochemical; settings: 100 mM MgCl2
Protocol: The reconstitution of the RNase P holoenzyme was performed as described in ([40],[19]). This protocol produces a homogeneous and functional ribozyme that can be crystallized by mixing P RNA and P protein in a 1:1.1 molar ratio in 1× TH buffer (33 mM Tris–HCl, 66 mM HEPES, pH 7.4) and 400 mM ammonium acetate (AmOAc). The mixture was heated to 95°C for 2 min in a water bath, then chilled on ice for 2 min, after which MgCl2 was added to a final concentration of 100 mM. […] This higher concentration was used in all experiments described herein. The holoenzyme was further incubated at 50°C for 10 min and 37°C for 40 min. The final concentration of holoenzyme was 333 nM (35.6 μg/ml of P RNA and 4.7 μg/ml of P protein).
The minihelix (Mh) substrate (Figure 1A) was adopted from a previously characterized RNase P substrate, pMini3bpUG ([32],[33]) and coupled to either Black Hole Quencher 1 (BHQ1) or Black Hole Quencher 2 (BHQ2) at the 5′-end and Alexa Fluor 488 at the 3′-end. This probe was purchased either from Sigma-Aldrich or Integrated DNA Technologies (IDT). A requested scale of […] yielded between 6.3 and 20 nmol (57.5 to 181 μg, enough for 1300–4000 reactions depending on the experimental substrate concentration). Before use, the minihelix was diluted from a 100 μM stock (dissolved in water) to 3.6 μM in activity buffer H (33 mM Tris–HCl, 66 mM HEPES, pH 7.4, 400 mM AmOAc and 100 mM MgCl2).
Reactions were performed in a total volume of 20 μl. Pipetting was done by hand using multichannel pipettes. First, an 18 μl reaction mixture containing 16.5 μl of activity buffer (H for Mh or L supplemented with 10% PEG 200 for bipartite pre-tRNA) and 270 nM (Mh) or 135 nM (bipartite pre-tRNA) (1.5 or 0.7 μl of the 3.6 μM stock) of the fluorescent substrate probe was pre-incubated on ice for at least 5 m in a black polystyrene 384-well microtiter microplate with a flat transparent bottom (Corning ref 3540). The holoenzyme was then added at a final concentration of 33 nM (2 μl of a 333 nM stock) in 1× TH buffer and mixed. Kinetic activity was monitored in a Synergy MX Multimode Detector (BioTek) at 37°C with rapid agitation. At least 20 readings were taken per well every 15 s. The probe was excited at 485 nm, and its emission was monitored at 535 nm with an integration time of 1 s. From the plots of relative fluorescent units (RFU) versus time, linear regression was used to determine the slopes in the linear portion of the curves, using at least 12 data points to obtain initial velocities. Non-linear fitting to obtain the Michaelis–Menten parameters was performed using GraphPad Prism® 6.01 software.
Supplementary Figure 3. FRET assays of RNase P with the fluorescent substrate are reproducible. (A) Representative plots of kinetic assays performed in a single run. The standard assay (SA), (+), was performed at 37° C in a total volume of 20 µL and contained RNase P holoenzyme at 33 nM, substrate minihelix (Mh) at 270 nM, 10% DMSO and activity buffer (AB).
The negative control assay (-) contained 100 mM CaCl2 in place of MgCl2. Ten to twelve wells were monitored simultaneously in a typical assay. (B) Zoomed view of the linear region of the kinetic assays shown in panel A. Fluorescence readings were performed every 15-20 seconds.
Linear regression calculations were done using the GraphPad Prism 7 software. (C) The coefficient Z’-factor (1) was used as an indicator of reproducibility and was calculated based on the relative fluorescence units (RFU) in the plateau phase (taken at 20 minutes). The Z’-factor has a […]
presented in this work were either measured in triplicate or confirmed in subsequent assays. (D) […]
assay is robust. The IC50 values reported in Figures 1C and 2 were calculated according to this kinetic parameter. There is a negative drift in fluorescence in the case of the negative control.
However, it should be noted that the mean value of it (-279) is much smaller than the signal of the […]
positive control (3397). […]

[3] = tested on: 3'-biotinylated minihelix (Mh; pMini3bpUG) (RNA, hairpin) GAUCUGAAUGCGGAAACGCGCCAC; test: biolayer interferometry; settings: Mg2+ 10 mM, NH4+ 100 mM (ammonium acetate); 20 mM HEPES pH 7.4, DMSO, 30°C; compound 15.6-500 µM
P protein = target: T2, P protein (Thermotoga maritima, UniProt Q9X1H4); test: Binding hindrance of the 5′ RNA leader to the P protein (BLI); set-up: species or system T. maritima; settings: compound 100 μM, 5′ RNA leader 5 μM
T2 construct: GST (cleaved yes); made in house; host or cells: E. coli BL21(DE3)pLysS
T2 sequence (Q9X1H4 1-117): T1 sequence (Q9X1H4 1-117)
Protocol: A 5′ RNA leader sequence with 10-bases 5′-GGAAAAAGAU-3′ was purchased from IDT and used at a concentration of 5 μM. This sequence is the same used to obtain the crystal structure of the RNase P holoenzyme ([19]). The His-tagged P protein was immobilized on Ni-NTA biosensors at 0.05 mg/ml (3.4 μM). […] The steps performed on the assay and their periods were: P protein immobilization (400 s), wash (100 s), baseline […] (1000 rpm), compound association (800 s), compound dissociation (200 s) (500 rpm), baseline (100 s), 5′ leader association (200 s), 5′ leader dissociation (200 s) (1000 rpm). The assay was performed at 30°C. The compounds were used at 100 μM throughout. All assay steps were performed in 20 mM HEPES pH 7.4, 100 mM ammonium acetate, 10 mM MgCl2, 5% DMSO.
5 ′ RNA leader. (A) Experimental design of 5′ RNA leader binding hindrance experiments. Figures B-F are based on the analysis region depicted in panel A, where association and dissociation of the 5′ RNA leader to the P protein (TmP) is measured over time. P protein at 3.5 µM was immobilized on Ni-NTA biosensors for 300 s, while compounds were assayed at 100 µM and the […]
binding, in contrast with hematein (E) and purpurin (F).
(1 picture or pasted object on this page, not shown here)

minihelix (Mh) = test: Biolayer interferometry binding to biotinylated minihelix substrate; settings: BLI
Protocol: 3′-Biotinylated minihelix was purchased from Integrated DNA Technologies (IDT) (24-mer RNA sequence, 5′-[…]-3′-Biotin). The biotinylated minihelix was immobilized on Super Streptavidin (SSA) biosensors at a concentration of 10 μM. […] For the titration experiments, 10 μM of 3′-biotinylated minihelix was immobilized for 300 s on Super Streptavidin (SSA) biosensors, followed by a wash step of 100 s and association and dissociation steps of 200 s in the presence of 6 different concentrations of compound ranging from 500 to 15.6 μM. SSA biosensors with no minihelix were used to measure non-specific binding of compounds. All other parameters (buffer, instrument control, analysis) are as described above.
Supplementary Figure 16. Binding assays monitor the interaction of compounds with the minihelix (Mh). Gentian violet and methylene blue bind in a dose-dependent relationship to the artificial minihelix substrate. […]
interaction between the minihelix and (A) gentian violet (KD=8 µM ) and (B) methylene blue A 3′-biotinylated substrate minihelix at 10 µ M was immobilized on super streptavidin (SSA) biosensors for 300 s.
Supplementary Figure 17. pre-tRNA displaces bound purpurin in a dose-response […]
indicating a true competition between purpurin and pre-tRNA binding sites. […]

SMILES: N=C1C=CC(=C(c2ccc(N)cc2)c2ccc(N)cc2)C=C1 [Pararoseaniline]
- Inhibition of RNase P in fluorescence and gel verification [1]: did not inhibit RNase P

SMILES: CCCCC(CC)CNC(=N)NC(=N)NCCCCCCNC(=N)NC(=N)NCC(CC)CCCC (stereo not drawn) [alexidine hydrochloride]
- Inhibition of RNase P in fluorescence and gel verification [1]: seems to precipitate the holoenzyme

SMILES: Cc1cc(O)c2c(c1)C(=O)c1cc(O)cc(O)c1C2=O [emodin]
- Inhibition of RNase P in fluorescence and gel verification [1]: did not inhibit RNase P

SMILES: Oc1c(I)cc(I)c2cccnc12 [iodoquinol, reference compound]
- Inhibition of RNase P in fluorescence and gel verification [1]: false positive

SMILES: NC[C@H]1O[C@H](O[C@H]2[C@H](O)[C@@H](O[C@H]3O[C@H](CO)[C@@H](O)[C@H](N)[C@H]3O)[C@H](N)C[C@@H]2N)[C@H](N)[C@@H](O)[C@@H]1O [kanamycin B, reference compound]
- Inhibition of RNase P (Mh fluorescence assay) [2]: did not detect inhibition

SMILES: CN(C)c1ccc2nc3ccc(=[N+](C)C)cc-3sc2c1 [methylene blue, reference compound]
- KD [3]: 35 µM
- Hindrance of 5′ RNA leader binding to the P protein (P protein): did not interfere with RNA leader
- IC50 ([2]; fluorescent Mh substrate 270 nM, holoenzyme 33 nM, 10% DMSO, 37°C, 400 mM AmOAc): 110 µM and 109 µM
- Kd (minihelix (Mh); 3′-biotinylated minihelix 10 μM on SSA biosensors): 35 µM
- Binding to the minihelix substrate (minihelix (Mh); initial screening at 1 mM and titration): binding signal

SMILES: NC[C@@H]1O[C@H](O[C@H]2[C@@H](O)[C@H](O[C@@H]3[C@@H](O)[C@H](N)C[C@H](N)[C@H]3O[C@H]3O[C@H](CN)[C@@H](O)[C@H](O)[C@H]3N)O[C@@H]2CO)[C@H](N)[C@@H](O)[C@@H]1O [neomycin B, reference compound]
- Inhibition of RNase P (Mh fluorescence assay) [2]: did not detect inhibition

SMILES: O=C(N/N=C/c1ccc([N+](=O)[O-])o1)c1cc([N+](=O)[O-])cc([N+](=O)[O-])c1O [nifursol, reference compound]
- Inhibition of RNase P in fluorescence and gel verification [1]: weak inhibitor
